Test results taken from patent US20140357553A1, “NUTRITIONAL COMPOSITION FOR WOUND HEALING” (Nestec S.A., priority 2003, published 2014).

Test system: Normal human fibroblasts
Method: Normal human fibroblasts were trypsinised and seeded in 12 well plates at a density of […]. When confluent, the cells were transferred to a culture medium with an amino acid distribution and concentrations designed to mimic those in human serum as closely as possible. The cell cultures were divided into two categories, a control culture in which the culture medium contained 0.201 mM proline and an experimental sample in which the culture medium contained 0.592 mM proline. After 24 hours fibroblast-conditioned medium containing 100 microgram/ml beta-aminoproprionitrile to prevent cross-linking of collagen molecules in the cultures was collected. The conditioned medium was dotblotted to a nitrocellulose membrane and probed for collagen type I content with a polyclonal immune-absorbed antibody. The value shown for the proline-supplemented samples is relative to the controls set at 100%.

## O=C(O)[C@@H]1CCCN1 [Proline, proline]
0.502 mM proline in culture medium vs control medium with 0.201 mM proline set at 100%, conditioned medium collected after 24 hours
  % of control value (collagen type I content): 150% ± 21.9%
Human fibroblasts, proline-supplemented medium vs control
  increase in collagen synthesis: 50%
